Assay results as given in patent US11739098B2 (BRISTOL-MYERS SQUIBB COMPANY, priority 2017, dated 2023).

Columns and labels:
Format in all cases: cell-based
human TLR7 = target: T1, human TLR7 (Homo sapiens, UniProt Q9NYK1); assay: TLR7 inhibition reporter assay (HEK-Blue cells, SEAP reporter, gardiquimod stimulation); conditions: HEK-Blue cells overexpressing human TLR7, SEAP reporter, gardiquimod 7.5 μM
T1 construct: host or cells: HEK-Blue cells (HEK293-derived reporter line)
T1 sequence (Q9NYK1 27-1049): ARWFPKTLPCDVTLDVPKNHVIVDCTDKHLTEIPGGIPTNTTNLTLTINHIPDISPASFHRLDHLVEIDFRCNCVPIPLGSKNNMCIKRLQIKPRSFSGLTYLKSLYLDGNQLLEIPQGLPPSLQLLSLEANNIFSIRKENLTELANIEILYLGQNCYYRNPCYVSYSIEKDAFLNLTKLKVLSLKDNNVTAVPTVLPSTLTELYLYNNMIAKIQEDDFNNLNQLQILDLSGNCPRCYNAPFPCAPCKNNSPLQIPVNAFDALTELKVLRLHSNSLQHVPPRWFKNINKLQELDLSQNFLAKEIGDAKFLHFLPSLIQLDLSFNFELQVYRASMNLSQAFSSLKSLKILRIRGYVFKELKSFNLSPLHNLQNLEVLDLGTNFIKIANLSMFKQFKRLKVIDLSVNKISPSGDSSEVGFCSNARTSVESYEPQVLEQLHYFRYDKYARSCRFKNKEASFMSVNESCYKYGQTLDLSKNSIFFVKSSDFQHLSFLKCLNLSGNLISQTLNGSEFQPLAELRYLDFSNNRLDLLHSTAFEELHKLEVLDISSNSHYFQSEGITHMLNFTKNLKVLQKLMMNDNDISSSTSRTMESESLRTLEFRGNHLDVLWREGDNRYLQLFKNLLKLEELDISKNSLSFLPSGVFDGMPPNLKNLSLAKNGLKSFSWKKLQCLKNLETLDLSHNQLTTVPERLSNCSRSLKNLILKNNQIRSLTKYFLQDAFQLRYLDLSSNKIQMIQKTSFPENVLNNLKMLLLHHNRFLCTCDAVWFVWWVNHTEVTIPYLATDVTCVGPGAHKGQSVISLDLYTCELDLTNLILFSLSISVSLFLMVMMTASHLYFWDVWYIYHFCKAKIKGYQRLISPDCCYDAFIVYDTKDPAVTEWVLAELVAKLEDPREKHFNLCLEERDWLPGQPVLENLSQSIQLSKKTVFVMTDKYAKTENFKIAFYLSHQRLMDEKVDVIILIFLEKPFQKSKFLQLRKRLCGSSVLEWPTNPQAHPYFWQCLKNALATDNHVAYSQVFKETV
Outline: (§1)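 Cells seeded per well (15000 TLR7, 20,000 TLR8, 25,000 TLR9); compound added over 0.05 nM–50 μM for 30 min at room temperature; agonist added (TLR7 gardiquimod 7.5 μM, TLR8 R848 15.9 μM, TLR9 ODN2006 5 nM); 22 h at 37 °C; SEAP measured; percent inhibition calculated.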

human TLR8 = target: T2, human TLR8 (Homo sapiens, UniProt Q9NR97); assay: TLR8 inhibition reporter assay (HEK-Blue cells, SEAP reporter, R848 stimulation); conditions: HEK-Blue cells overexpressing human TLR8, SEAP reporter, R848 15.9 μM
T2 construct: host or cells: HEK-Blue cells (HEK293-derived reporter line)
T2 sequence (Q9NR97 27-1041): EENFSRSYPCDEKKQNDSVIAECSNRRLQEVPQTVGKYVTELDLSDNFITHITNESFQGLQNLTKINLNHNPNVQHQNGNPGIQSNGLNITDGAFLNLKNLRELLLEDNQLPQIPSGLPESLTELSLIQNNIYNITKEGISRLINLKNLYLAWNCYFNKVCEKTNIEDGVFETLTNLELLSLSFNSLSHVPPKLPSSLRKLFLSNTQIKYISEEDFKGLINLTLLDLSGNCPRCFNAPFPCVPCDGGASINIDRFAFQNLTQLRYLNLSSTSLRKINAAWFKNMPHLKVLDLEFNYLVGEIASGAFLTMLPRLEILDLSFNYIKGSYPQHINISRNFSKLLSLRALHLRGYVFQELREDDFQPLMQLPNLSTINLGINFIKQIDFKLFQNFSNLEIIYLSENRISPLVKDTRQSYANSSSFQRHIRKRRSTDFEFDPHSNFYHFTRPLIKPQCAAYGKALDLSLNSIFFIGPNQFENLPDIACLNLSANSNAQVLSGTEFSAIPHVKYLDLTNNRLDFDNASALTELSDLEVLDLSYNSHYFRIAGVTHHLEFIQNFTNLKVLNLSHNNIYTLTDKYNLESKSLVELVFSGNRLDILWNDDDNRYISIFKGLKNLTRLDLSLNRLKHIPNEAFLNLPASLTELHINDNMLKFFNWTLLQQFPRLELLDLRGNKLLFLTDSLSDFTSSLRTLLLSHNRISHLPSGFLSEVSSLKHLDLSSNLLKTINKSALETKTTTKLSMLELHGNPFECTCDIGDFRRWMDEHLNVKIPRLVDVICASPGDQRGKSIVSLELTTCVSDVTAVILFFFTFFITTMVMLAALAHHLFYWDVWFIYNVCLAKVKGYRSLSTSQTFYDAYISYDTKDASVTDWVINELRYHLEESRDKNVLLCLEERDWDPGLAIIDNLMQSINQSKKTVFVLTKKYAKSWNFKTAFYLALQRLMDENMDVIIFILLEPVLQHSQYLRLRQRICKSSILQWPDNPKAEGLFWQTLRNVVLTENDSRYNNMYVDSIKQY
Outline: as §1

human TLR9 = target: T3, human TLR9 (Homo sapiens, UniProt Q9NR96); assay: TLR9 inhibition reporter assay (HEK-Blue cells, SEAP reporter, ODN2006 stimulation); conditions: HEK-Blue cells overexpressing human TLR9, SEAP reporter, ODN2006 5 nM
T3 construct: host or cells: HEK-Blue cells (HEK293-derived reporter line)
T3 sequence (Q9NR96 26-1032): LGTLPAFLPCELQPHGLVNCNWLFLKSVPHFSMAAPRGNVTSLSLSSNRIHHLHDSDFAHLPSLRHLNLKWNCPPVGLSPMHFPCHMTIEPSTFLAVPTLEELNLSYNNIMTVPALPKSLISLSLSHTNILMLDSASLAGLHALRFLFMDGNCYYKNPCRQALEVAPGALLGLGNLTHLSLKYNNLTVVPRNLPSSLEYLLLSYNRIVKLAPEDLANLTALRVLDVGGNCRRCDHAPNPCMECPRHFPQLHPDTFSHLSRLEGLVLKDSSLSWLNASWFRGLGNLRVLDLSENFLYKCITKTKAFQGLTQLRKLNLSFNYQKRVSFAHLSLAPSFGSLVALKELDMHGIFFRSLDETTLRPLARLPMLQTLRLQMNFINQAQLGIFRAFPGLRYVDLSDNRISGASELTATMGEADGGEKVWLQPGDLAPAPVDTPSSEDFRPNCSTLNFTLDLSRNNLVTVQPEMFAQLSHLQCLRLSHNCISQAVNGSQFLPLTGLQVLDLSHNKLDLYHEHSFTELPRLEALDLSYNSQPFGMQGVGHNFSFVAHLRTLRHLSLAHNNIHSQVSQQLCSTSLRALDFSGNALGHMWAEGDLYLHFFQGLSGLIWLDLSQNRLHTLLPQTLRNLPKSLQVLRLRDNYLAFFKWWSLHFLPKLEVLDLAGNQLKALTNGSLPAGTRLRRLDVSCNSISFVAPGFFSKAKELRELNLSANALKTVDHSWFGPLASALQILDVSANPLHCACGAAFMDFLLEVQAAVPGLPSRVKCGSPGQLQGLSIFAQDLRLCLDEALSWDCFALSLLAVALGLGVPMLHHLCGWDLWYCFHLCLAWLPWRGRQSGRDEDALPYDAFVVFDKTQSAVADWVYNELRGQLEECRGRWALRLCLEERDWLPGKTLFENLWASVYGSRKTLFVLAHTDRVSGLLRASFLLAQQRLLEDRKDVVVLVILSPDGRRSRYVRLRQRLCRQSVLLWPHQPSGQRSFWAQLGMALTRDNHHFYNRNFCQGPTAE
Outline: as §1

Structure (SMILES) | IC50 (human TLR7) [µM] | IC50 (human TLR8) [µM] | IC50 (human TLR9) [µM]
CC(C)c1c(-c2cnc3ncnn3c2)[nH]c2ccc(C3CCNCC3)cc12 [Example 170, 6-(3-isopropyl-5-(piperidin-4-yl)-1H-indol-2-yl)-[1,2,4]triazolo[1,5-a]pyrimidine] | < 0.1 | < 0.1 | 0.1 to 1
CCc1c(-c2ccc3oc(=O)[nH]c3c2)[nH]c2ccc(C3CCNCC3)cc12 [Example 168, 5-(3-ethyl-5-(piperidin-4-yl)-1H-indol-2-yl)benzo[d]oxazol-2(3H)-one] | 0.1 to 1 | 0.1 to 1 | 0.1 to 1
CC(C)c1c(-c2cnc3cnccn23)[nH]c2ccc(C3CCNCC3)cc12 [Example 194, 3-(3-isopropyl-5-(piperidin-4-yl)-1H-indol-2-yl)imidazo[1,2-a]pyrazine] | 1 to 50 | 1 to 50 | 0.1 to 1
CCc1c(-c2ncnc3[nH]ccc23)[nH]c2ccc(C3CCNCC3)cc12 [Example 206, 4-(3-ethyl-5-(piperidin-4-yl)-1H-indol-2-yl)-7H-pyrrolo[2,3-d] pyrimidine] | 0.1 to 1 | < 0.1 | 1 to 50
Cc1cc(-c2[nH]c3ccc(C4CCN(CC(=O)N(C)C)CC4)cc3c2C(C)C)cn2nncc12 [Example 307, 2-(4-(3-isopropyl-2-(4-methyl-[1,2,3]triazolo [1,5-a]pyridin-6-yl)-1H-indol-5-yl)piperidin-1-yl)-N,N-dimethylacetamide] | 0.1 to 1 | 0.1 to 1 | 1 to 50
CCc1c(-c2ccnc3[nH]nc(CC)c23)[nH]c2ccc(C3CCNCC3)cc12 [Example 224, 3-ethyl-4-(3-ethyl-5-(piperidin-4-yl)-1H-indol-2-yl)-1H-pyrazolo[3,4-b]pyridine] | 0.1 to 1 | < 0.1 | 0.1 to 1
Cc1cc2cc(-c3[nH]c4ccc(C5CCN(C(=O)CN(C)C)CC5)cc4c3C(C)C)ccn2n1 [Example 535, 2-(dimethylamino)-1-(4-(3-isopropyl-2-(2-methylpyrazolo[1,5-a]pyridin-5-yl)-1H-indol-5-yl)piperidin-1-yl)ethan-1-one] | 0.1 to 1 | 1 to 50 | 1 to 50
CC(C)c1c(-c2ccnc3[nH]ncc23)[nH]c2ccc(C3CCNCC3)c(F)c12 [Example 259, 4-(4-fluoro-3-isopropyl-5-(piperidin-4-yl)-1H-indol-2-yl)-1H-pyrazolo[3,4-b]pyridine] | < 0.1 | < 0.1 | 0.1 to 1
CC(C)c1c(-c2ccnc3[nH]ncc23)[nH]c2ccc(C3CCN(Cc4ncc[nH]4)CC3)cc12 [Example 914, 4-(5-(1-((1H-imidazol-2-yl)methyl)piperidin-4-yl)-3-isopropyl-1H-indol-2-yl)-1H-pyrazolo[3,4-b]pyridine] | < 0.1 | < 0.1 | 1 to 50
Cc1c(-c2ncc3cc[nH]c3n2)[nH]c2ccc(C3CCN(C4CCN(C(C)C)CC4)CC3)cc12 [Example 809, 2-(5-(1′-isopropyl-[1,4′-bipiperidin]-4-yl)-3-methyl-1H-indol-2-yl)-7H-pyrrolo[2,3-d]pyrimidine] | 1 to 50 | 1 to 50 | 0.1 to 1
Cc1cc(-c2[nH]c3ccc(C4CCN(C5COC5)CC4)cc3c2C(C)C)cn2ccnc12 [Example 719, 6-(3-isopropyl-5-(1-(oxetan-3-yl)piperidin-4-yl)-1H-indol-2-yl)-8-methylimidazo[1,2-a]pyridine] | < 0.1 | < 0.1 | 0.1 to 1
CCN(CC)C(=O)C1CCCN(CC(=O)N2CCC(c3ccc4[nH]c(-c5ccnc6[nH]ccc56)c(C(C)C)c4c3)CC2)C1 (stereo not drawn) [Example 569, N,N-diethyl-1-(2-(4-(3-isopropyl-2-(1H-pyrrolo[2,3-b]pyridin-4-yl)-1H-indol-5-yl)piperidin-1-yl)-2-oxoethyl)piperidine-3-carboxamide] | < 0.1 | < 0.1 | 0.1 to 1
CCc1c(-c2c[nH]c3ncccc23)[nH]c2ccc(C3CCNCC3)cc12 [Example 243, 3-(3-ethyl-5-(piperidin-4-yl)-1H-indol-2-yl)-1H-pyrrolo[2,3-b]pyridine] | < 0.1 | < 0.1 | 0.1 to 1
CC(C)c1c(-c2ccc3c(N)noc3c2)[nH]c2ccc(C3CCNCC3)cc12 [Example 86, 6-(3-isopropyl-5-(piperidin-4-yl)-1H-indol-2-yl)benzo[d]isoxazol-3-amine] | 0.1 to 1 | 0.1 to 1 | 0.1 to 1
CC(C)c1c(-c2ccn3nncc3c2)[nH]c2ccc(C3CCN(C4CCOCC4)CC3)cc12 [Example 701, 5-(3-isopropyl-5-(1-(tetrahydro-2H-pyran-4-yl)piperidin-4-yl)-1H-indol-2-yl)-[1,2,3]triazolo[1,5-a]pyridine] | < 0.1 | < 0.1 | 0.1 to 1
